Test results published in ChEMBL document CHEMBL5518214, “Discovery and Structure-Activity Relationships of Novel ssDAF-12 Receptor Modulators” (J Med Chem, 2024).
Values after ≈ are worked out from the molar mass of the structure shown.

Key:
[1] = target: T1, Nuclear hormone receptor isoform A (Strongyloides stercoralis, UniProt A0A0K0EQJ4); test: Antagonist activity at GST-tagged Strongyloides stercoralis DAF-12 LBD incubated for 0.5 hrs in presence of biotinylated SRC1 and SRC2 by Alphascreen assay
T1 sequence (A0A0K0EQJ4 whole entry): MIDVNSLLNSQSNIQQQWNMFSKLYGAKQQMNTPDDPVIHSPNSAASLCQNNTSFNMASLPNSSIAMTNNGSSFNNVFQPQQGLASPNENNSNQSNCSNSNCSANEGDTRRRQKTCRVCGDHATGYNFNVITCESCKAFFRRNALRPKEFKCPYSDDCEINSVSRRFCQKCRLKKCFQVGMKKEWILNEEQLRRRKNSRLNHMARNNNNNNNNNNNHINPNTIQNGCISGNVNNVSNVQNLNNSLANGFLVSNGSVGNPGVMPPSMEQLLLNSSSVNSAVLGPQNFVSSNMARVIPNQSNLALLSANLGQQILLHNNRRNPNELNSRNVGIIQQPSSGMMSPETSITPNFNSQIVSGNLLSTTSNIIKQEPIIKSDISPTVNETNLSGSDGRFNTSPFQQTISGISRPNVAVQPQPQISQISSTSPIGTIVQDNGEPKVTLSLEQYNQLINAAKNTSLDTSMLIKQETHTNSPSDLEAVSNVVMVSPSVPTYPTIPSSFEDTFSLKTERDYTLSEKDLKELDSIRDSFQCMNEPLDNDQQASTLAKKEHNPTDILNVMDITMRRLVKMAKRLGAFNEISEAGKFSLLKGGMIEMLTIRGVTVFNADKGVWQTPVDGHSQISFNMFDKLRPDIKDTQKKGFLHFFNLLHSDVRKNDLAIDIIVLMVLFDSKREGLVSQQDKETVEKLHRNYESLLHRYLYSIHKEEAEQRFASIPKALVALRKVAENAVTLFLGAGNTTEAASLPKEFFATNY

[2] = target: T1, Nuclear hormone receptor isoform A; test: Agonist activity at GST-tagged Strongyloides stercoralis DAF-12 LBD incubated for 0.5 hrs in presence of biotinylated SRC1 and SRC2 by Alphascreen assay
[3] = target: T2, Nuclear hormone receptor isoform A (Strongyloides stercoralis) (UniProt A0A0K0EQJ4); test: Agonist activity at GST-tagged Strongyloides stercoralis DAF-12 LBD incubated for 0.5 hrs in presence of biotinylated SRC1 and SRC2 by Alphascreen assay relative to control; conditions: filed as agonist
T2 sequence (whole entry): T1 sequence (A0A0K0EQJ4 whole entry)

[4] = target: T1, Nuclear hormone receptor isoform A; test: Agonist activity at Strongyloides stercoralis DAF-12 LBD transfected in CHO cells; type: cell-based
[5] = Kinetic solubility of compound at pH 7.4 by HPLC/MS analysis; type: physicochemical; conditions: buffer, read-out: Kinetic_solubility
[6] = Drug metabolism in human liver microsome assessed as (2S,6R)-6-((5S,10S,13R,17R)-3-hydroxy-10,13-dimethyl-2,3,4,5,6,9,10,11,12,13,14,15,16,17-tetradecahydro-1H-cyclopenta[a]phenanthren-17-yl)-2-methylheptanoic acid formation by measuring retention time incubated for 90 mins in presence of NADPH by LC-MS/MS analysis; type: ADME; conditions: microsomes, 1.5 h
[7] = target: T1, Nuclear hormone receptor isoform A; test: Partial agonist activity at GST-tagged Strongyloides stercoralis DAF-12 LBD incubated for 0.5 hrs in presence of biotinylated SRC1 and SRC2 by Alphascreen assay
[8] = target: T2, Nuclear hormone receptor isoform A (Strongyloides stercoralis); test: Partial agonist activity at GST-tagged Strongyloides stercoralis DAF-12 LBD incubated for 0.5 hrs in presence of biotinylated SRC1 and SRC2 by Alphascreen assay relative to control
HepG2 = test: Cytotoxicity against human HepG2 cells assessed as reduction in cell viability incubated for 4 hrs by celltiter glo assay; type: toxicity, cell-based; conditions: hepg2, 4 h
[9] = Metabolic stability in human liver microsome assessed as parent compound remaining measured for 30 mins by LC-MS analysis; type: ADME; conditions: human liver microsomes, read-out: Stability
[10] = Metabolic stability in human liver microsome assessed as half life measured for 30 mins by LC-MS analysis; type: ADME; conditions: human liver microsomes
[11] = Drug metabolism in human liver microsome incubated for 90 mins in presence of NADPH by LC-MS/MS analysis; type: ADME; conditions: microsomes, 1.5 h

Row | SMILES | IC50 [1] [µM] | EC50 [2] [µM] | Emax [3] [%] | further results
1 | C[C@H](CCCC1=C(O)CCC1=O)[C@H]1CC[C@H]2C3=CC[C@H]4CC(=O)CC[C@]4(C)C3CC[C@]12C (stereo partly specified) | 16.8 | > 100 | – | –
2 | C[C@H](CCC[C@H](C)C(=O)NS(C)(=O)=O)[C@H]1CC[C@H]2C3=CC[C@H]4CC(=O)CC[C@]4(C)C3CC[C@]12C (stereo partly specified) | – | 0.41 | 85 | EC50 [4]: 0.47 µM; solubility kinetic [5]: > 250 µM; Retention_time [6]: 7.28 min
3 | C[C@H](CO)CCC[C@@H](C)[C@H]1CC[C@H]2C3=CC[C@H]4CC(=O)CC[C@]4(C)C3CC[C@]12C (stereo partly specified) | – | – | – | EC50 [7]: 1.02 µM; Emax [8]: 36%
4 | C[C@H](CCc1nnn(C(c2ccccc2)(c2ccccc2)c2ccccc2)n1)[C@H]1CC[C@H]2C3=CC[C@H]4CC(=O)CC[C@]4(C)C3CC[C@]12C (stereo partly specified) | 60 | > 100 | – | –
5 | C[C@H](CCC[C@H](C)C(=O)O)[C@H]1CC[C@H]2C3=CC[C@H]4CC(=O)CC[C@]4(C)C3CC[C@]12C (stereo partly specified) | – | 0.08 | 100 | EC50 [4]: 0.09 µM; Activity (HepG2): Non-Toxic; solubility kinetic [5]: 4 µM (≈ 1.66 µg/mL); remaining at 0.5 h [9]: 50%; half-life [10]: 17 min; Retention_time [6]: 8.51 min; Drug metabolism [11]: Metabolite_Detected
6 | CNC(=O)[C@@H](C)CCC[C@@H](C)[C@H]1CC[C@H]2C3=CC[C@H]4CC(=O)CC[C@]4(C)C3CC[C@]12C (stereo partly specified) | – | – | – | EC50 [7]: 1.02 µM; Emax [8]: 11%
7 | C[C@H](CCc1nn[nH]n1)[C@H]1CC[C@H]2C3=CC[C@H]4CC(=O)CC[C@]4(C)C3CC[C@]12C (stereo partly specified) | 6.9 | > 100 | – | –
8 | C[C@@H](CCC[C@@H](C)[C@H]1CC[C@H]2C3=CC[C@H]4CC(=O)CC[C@]4(C)C3CC[C@]12C)COS(=O)(=O)O (stereo partly specified) | – | – | – | EC50 [7]: 7.2 µM; Emax [8]: 15%
9 | C[C@H](CCCc1nnn(C)n1)[C@H]1CC[C@H]2C3=CC[C@H]4CC(=O)CC[C@]4(C)C3CC[C@]12C (stereo partly specified) | 17.9 | > 100 | – | –
10 | C[C@H](CCc1nnn(C)n1)[C@H]1CC[C@H]2C3=CC[C@H]4CC(=O)CC[C@]4(C)C3CC[C@]12C (stereo partly specified) | 10 | > 100 | – | –
11 | C[C@H](CCC[C@H](C)C(=O)NS(=O)(=O)N(C)C)[C@H]1CC[C@H]2C3=CC[C@H]4CC(=O)CC[C@]4(C)C3CC[C@]12C (stereo partly specified) | – | 0.65 | 95 | –
12 | Cc1ccc(S(=O)(=O)NC(=O)[C@@H](C)CCC[C@@H](C)[C@H]2CC[C@H]3C4=CC[C@H]5CC(=O)CC[C@]5(C)C4CC[C@]23C)cc1 (stereo partly specified) | – | 4.7 | 40 | –
13 | C[C@H](CCc1nnn(C(C)(C)C)n1)[C@H]1CC[C@H]2C3=CC[C@H]4CC(=O)CC[C@]4(C)C3CC[C@]12C (stereo partly specified) | 7.8 | > 100 | – | –
